ChEMBL document CHEMBL4823243, “Synergistic induction of apoptosis in resistant head and neck carcinoma and leukemia by alkoxyamide-based histone deacetylase inhibitors” (Eur J Med Chem, 2021)
Calls of active or inactive are those of the source. No cut-off for these calls is given here.

How the values were obtained:
[1] = biological target: T1, Histone deacetylase (Homo sapiens) (UniProt Q13547+O15379+Q9UBN7+Q92769+Q9UQL6+Q8WUI4+Q9BY41+Q96DB2+P56524+Q9UKV0+Q969S8); test: Inhibition of HDAC in human CAL-27 cells assessed as combination index at 0.25 uM measured in presence of 5 uM cDDP by MTT-based Chou-Talalay method; assay type: cell-based
[2] = biological target: T1, Histone deacetylase (Homo sapiens); test: Inhibition of HDAC in human CAL-27 cells assessed as combination index at 0.35 uM measured in presence of 2 uM cDDP by MTT-based Chou-Talalay method; assay type: cell-based
[3] = biological target: T1, Histone deacetylase (Homo sapiens); test: Inhibition of HDAC in human Cal27CisR cells assessed as combination index at 0.2 uM measured in presence of 50 uM cDDP by MTT-based Chou-Talalay method; assay type: cell-based
HL-60 [4] = test: Induction of apoptosis in human HL-60 cells assessed as caspase 3/7 activation at IC75 concentration incubated at 48 hrs; assay type: functional
Cal27CisR = test: Induction of apoptosis in human Cal27CisR cells assessed as caspase 3 activation at 0.3 uM pretreated for 24 hrs followed by cisplatin treatment and further incubated for 18 hrs by Caspase3/7 detection reagent based assay; assay type: functional, cell-based; conditions: time 42.0 hrs
[5] = biological target: T1, Histone deacetylase (Homo sapiens); test: Inhibition of HDAC in human CAL-27 cells assessed as combination index at 0.3 uM measured in presence of 10 uM cDDP by MTT-based Chou-Talalay method; assay type: cell-based
CAL-27 [6] = test: Induction of apoptosis in human CAL-27 cells assessed as caspase 3 activation at 0.3 uM pretreated for 24 hrs followed by cisplatin treatment and further incubated for 18 hrs by Caspase3/7 detection reagent based assay; assay type: functional, cell-based; conditions: time 42.0 hrs
CAL-27 [7] = test: Induction of apoptosis in cisplatin resistant human CAL-27 cells assessed as caspase 7 activation at 0.3 uM pretreated for 24 hrs followed by cisplatin treatment and further incubated for 18 hrs by Caspase3/7 detection reagent based assay; assay type: functional, cell-based; conditions: time 42.0 hrs
[8] = biological target: T1, Histone deacetylase (Homo sapiens); test: Inhibition of HDAC in human CAL-27 cells assessed as combination index at 0.1 uM measured in presence of 10 uM cDDP by MTT-based Chou-Talalay method; assay type: cell-based
HL-60 [9] = test: Antiproliferative activity against human HL-60 cells assessed as reduction in cell viability for 72 hrs by Celltitre-Glo luminescent assay; assay type: functional, cell-based; conditions: HL-60, 72 h
[10] = biological target: T1, Histone deacetylase (Homo sapiens); test: Inhibition of HDAC in human Cal27CisR cells assessed as combination index at 0.3 uM measured in presence of 10 uM cDDP by MTT-based Chou-Talalay method; assay type: cell-based
[11] = biological target: T1, Histone deacetylase (Homo sapiens); test: Inhibition of HDAC in human Cal27CisR cells assessed as combination index at 0.6 uM measured in presence of 50 uM cDDP by MTT-based Chou-Talalay method; assay type: cell-based
[12] = biological target: T1, Histone deacetylase (Homo sapiens); test: Inhibition of HDAC in human Cal27CisR cells assessed as combination index at 0.75 uM measured in presence of 50 uM cDDP by MTT-based Chou-Talalay method; assay type: cell-based
[13] = biological target: T1, Histone deacetylase (Homo sapiens); test: Inhibition of HDAC in human Cal27CisR cells assessed as combination index at 2 uM measured in presence of 10 uM cDDP by MTT-based Chou-Talalay method; assay type: cell-based
[14] = biological target: T1, Histone deacetylase (Homo sapiens); test: Inhibition of HDAC in human CAL-27 cells assessed as combination index at 2 uM measured in presence of 10 uM cDDP by MTT-based Chou-Talalay method; assay type: cell-based
[15] = biological target: T1, Histone deacetylase (Homo sapiens); test: Inhibition of HDAC in human Cal27CisR cells assessed as combination index at 3 uM measured in presence of 10 uM cDDP by MTT-based Chou-Talalay method; assay type: cell-based
Histone deacetylase = test: Inhibition of HDAC in human CAL-27 cells assessed as potentiation of cisplatin-induced cytotoxicity by measuring cisplatin IC50 at 2 to 3 uM pretreated for 48 hrs followed by cisplatin addition and measured after 72 hrs by MTT assay (reference value: 3.57 uM); assay type: cell-based
[16] = biological target: T1, Histone deacetylase (Homo sapiens); test: Inhibition of HDAC in human CAL-27 cells assessed as combination index at 1.5 uM measured in presence of 10 uM cDDP by MTT-based Chou-Talalay method; assay type: cell-based
CAL-27 [17] = test: Induction of apoptosis in cisplatin resistant human CAL-27 cells assessed as caspase 7 activation at 2 uM in presence cisplatin of pretreated for 24 hrs followed by cisplatin treatment and further incubated for 18 hrs by Caspase3/7 detection reagent based assay; assay type: functional, cell-based; conditions: time 42.0 hrs
[18] = biological target: T1, Histone deacetylase (Homo sapiens); test: Inhibition of HDAC in human CAL-27 cells assessed as combination index at 0.5 uM measured in presence of 10 uM cDDP by MTT-based Chou-Talalay method; assay type: cell-based
[19] = biological target: T1, Histone deacetylase (Homo sapiens); test: Inhibition of HDAC in human CAL-27 cells assessed as combination index at 2 uM measured in presence of 5 uM cDDP by MTT-based Chou-Talalay method; assay type: cell-based
[20] = biological target: T1, Histone deacetylase (Homo sapiens); test: Inhibition of HDAC in human CAL-27 cells assessed as combination index at 1.5 uM measured in presence of 5 uM cDDP by MTT-based Chou-Talalay method; assay type: cell-based
[21] = biological target: T1, Histone deacetylase (Homo sapiens); test: Inhibition of HDAC in human Cal27CisR cells assessed as combination index at 3 uM measured in presence of 50 uM cDDP by MTT-based Chou-Talalay method; assay type: cell-based
[22] = biological target: T1, Histone deacetylase (Homo sapiens); test: Inhibition of HDAC in human Cal27CisR cells assessed as combination index at 2 uM measured in presence of 20 uM cDDP by MTT-based Chou-Talalay method; assay type: cell-based
[23] = biological target: T1, Histone deacetylase (Homo sapiens); test: Inhibition of HDAC in human CAL-27 cells assessed as combination index at 1.25 uM measured in presence of 10 uM cDDP by MTT-based Chou-Talalay method; assay type: cell-based
[24] = biological target: T1, Histone deacetylase (Homo sapiens); test: Inhibition of HDAC in human CAL-27 cells assessed as combination index at 1 uM measured in presence of 10 uM cDDP by MTT-based Chou-Talalay method; assay type: cell-based
[25] = biological target: T1, Histone deacetylase (Homo sapiens); test: Inhibition of HDAC in human Cal27CisR cells assessed as potentiation of cisplatin-induced cytotoxicity by measuring fold reduction in cisplatin IC50 at 2 to 3 uM pretreated for 48 hrs followed by cisplatin addition and measured after 72 hrs by MTT assay relative to cisplatin alone; assay type: cell-based; conditions: dose 2-3 µM, time 120.0 hrs
CAL-27 [26] = test: Induction of apoptosis in cisplatin resistant human CAL-27 cells assessed as caspase 3 activation at 2 uM pretreated for 24 hrs followed by cisplatin treatment and further incubated for 18 hrs by Caspase3/7 detection reagent based assay; assay type: functional, cell-based; conditions: time 42.0 hrs
[27] = biological target: T1, Histone deacetylase (Homo sapiens); test: Inhibition of HDAC in human Cal27CisR cells assessed as combination index at 1 uM measured in presence of 50 uM cDDP by MTT-based Chou-Talalay method; assay type: cell-based
[28] = biological target: T1, Histone deacetylase (Homo sapiens); test: Inhibition of HDAC in human Cal27CisR cells assessed as combination index at 3 uM measured in presence of 20 uM cDDP by MTT-based Chou-Talalay method; assay type: cell-based
[29] = biological target: T1, Histone deacetylase (Homo sapiens); test: Inhibition of HDAC in human CAL-27 cells assessed as combination index at 0.25 uM measured in presence of 2 uM cDDP by MTT-based Chou-Talalay method; assay type: cell-based
[30] = biological target: T1, Histone deacetylase (Homo sapiens); test: Inhibition of HDAC in human CAL-27 cells assessed as combination index at 0.1 uM measured in presence of 5 uM cDDP by MTT-based Chou-Talalay method; assay type: cell-based

| CI [1] | CI [2] | CI [3] | CI [5] | CI [8] | IC50 (HL-60 [9]) | CI [10] | CI [11] | SMILES | Activity (Cal27CisR) | Activity (CAL-27 [6]) | Activity (CAL-27 [7]) | further results |
| --- | --- | --- | --- | --- | --- | --- | --- | --- | --- | --- | --- | --- |
| 0.94 | 0.68 | 0.5 | 0.02 | 0.22 | 270 nM | 0.16 | 0.38 | O=C(CCCCCONC(=O)c1ccc2ccccc2n1)NO | Active | Active | Active | IC75 (HL-60 [4]): 320 nM |
|  |  |  |  |  | 561 nM |  |  | O=C(CCCCCONC(=O)c1nccc2ccccc12)NO |  |  |  | CI [12]: 0.56; CI [13]: 0.58; CI [14]: 0.14; CI [15]: 0.24; IC50 (Histone deacetylase): 1100 nM; CI [16]: 0.21; Activity (CAL-27 [17]): Active; CI [18]: 0.58; CI [19]: 0.2; CI [20]: 0.37; CI [21]: 0.39; CI [22]: 0.35; CI [23]: 0.3; CI [24]: 0.34; Ratio IC50 [25]: 10; Activity (CAL-27 [26]): Active; CI [27]: 0.47; CI [28]: 0.21 |
| 0.11 | 0.21 | 0.47 | 0.02 | 0.22 |  | 1.17 | 0.41 | O=C(CCCCCONC(=O)c1cc2ccccc2[nH]1)NO | Active | Active | Active | CI [29]: 0.37; CI [30]: 0.53 |
